One compound from patent publication US11666580B2, “Mechanism of resistance to bet bromodomain inhibitors” (Dana-Farber Cancer Institute, Inc., priority 2015, dated 2023) can be followed below.

One experiment has as its system TNBC cells. Nature of the experiment: Immunofluorescence microscopy for basal and luminal markers. The format is cell-based, human. The conditions noted are these: 3 days after JQ1 (500 nM). How it is done:
Antibodies used for immunofluorescence were CK18 (Dako, M7010), CK17 (Dako, M7046), HMW (Dako, M0630), LMW (Dako, M0631), CD44 (NeoMarkers, MS-668-P1), CD24 (NeoMarkers, MS-1279-P1), p-STAT3 (Cell Signaling, 9145S), VIM (Dako, M073501), CDH1 (BD Biosciences, 610181), FLAG (Sigma, F1804), BrdU (Roche, 11170376001). Immunofluorescence experiments were performed in cultured cells or in whole sections of formalin-fixed paraffin embedded (FFPE) xenograft tumors. The staining was performed as described^50. Antibody dilutions were as follows: pSTAT3 (1:25), CD44 (1:100), CD24 (1:100), CK18 (1:200), CK17 (1:200), HMK (1:200), LMK (1:200), VIM (1:100), CDH1 (1:100), FLAG (1:50), and BrdU (1:200).

For experiment [1], the target named is chromatin-bound BRD4 in SUM159 cells (Homo sapiens, UniProt O60885).
Procedure: Chem-seq was performed essentially as described^27. ChIP-seq: SUM159 and SUM159R cells (4×10^7) were grown in SUM Medium. The media were then removed and replaced with media containing 1% formaldehyde (EM grade; tebu-bio) and crosslinked for 8 min. Crosslinking was quenched by adding glycine to a final concentration of 0.2 M. The cells were washed with ice-cold PBS, harvested in PBS, and the cell pellet was washed with PBS. The nuclear fraction was extracted by first resuspending the pellet in 10 ml of LB1 buffer (50 mM HEPES-KOH [pH 7.5], 140 mM NaCl, 1mMEDTA, 10% glycerol, 0.5% NP-40 or Igepal CA-630, and 0.25% Triton X-100) for 10 min at 4° C. Cells were pelleted, resuspended in 10 ml of LB2 buffer (10 mM Tris-HCL [pH 8.0], 200 mM NaCl, 1 mM EDTA, and 0.5 mM EGTA), and mixed for 5 min. Cells were pelleted and resuspended in 300 μl of LB3 buffer (10 mM Tris-HCl [pH 8], 100 mM NaCl, 1 mM EDTA, 0.5 mM EGTA, 0.1% Na-deoxycholate, and 0.5% N-lauroylsarcosine) and sonicated in a covaris sonicator for 10 min. A total of 30 μl of 10% Triton X-100 was added, and lysate was centrifuged for 10 min at 20,000 rcf to purify the debris. The supernatant was then incubated with 100 μl of magnetic beads (Life Technologies) prebound with 20 μg BRD4 antibody (Bethyl, A301-985A), and immunoprecipitation (IP) was conducted overnight in the cold room. The beads were washed ten times in 1 ml of RIPA buffer and twice in 100 mM ammonium hydrogen carbonate (AMBIC) solution. DNA was eluted in elution buffer (50 mM Tris-HCl pH 8, 10 mM EDTA, and 1% SDS). Cross-links were reversed overnight at 65° C. RNA and protein were digested with 0.2 mg/mL RNase A for 2 hr followed by 0.2 mg/mL Proteinase K for 1 hr. DNA was purified with phenol chloroform extraction and ethanol precipitation. Libraries for Illumina sequencing were prepared following the Rubicon ThruPLEX-FD kit for 10-12 cycles.
The subject of a further experiment is SUM149R cells. The experiment is described as follows: Cell growth assay (viable cell numbers). The format is cell-based, human. The conditions noted are these: high concentrations (up to 20 μM) of JQ1. How it is done: (§1) Cell viability and growth assays (FIGS. 1A-1B, FIGS. 3A-3E, 3G, FIGS. 5D-5F, FIGS. 6C, 6E, 6I, FIG. 7A, FIG. 10D, FIGS. 14A-14C), cycle, apoptosis, and MDR assays were performed in triplicates and repeated 2-3 times. For cell proliferation assays, cells were plated at 500 cells per well in 96-well plates and treated the next day with inhibitors, DMSO or doxycycline (500 ng). Cells were cultured at 37° C. with 5% CO2 in the media described-above, and cell viability was measured using CellTiter-Glo three days after treatments. For cell growth assays, cells were plated at 5000 (SUM159) or 20000 (SUM149) cells per well in 6-well plates and treated the next day with inhibitors. Cells were counted every three days by cell counter. Cellular apoptosis was analyzed with an APC AnnexinV/7ADD Apoptosis Detection kit (BD Pharmingen). AnnexinV/7AAD assessments and cell cycle graphics were generated using FlowJo software V7.6.1 for Windows (Tree Star). Senescence Beta-gal staining was performed using Senescence β-Galactosidase staining kit from Cell signaling. Briefly, after JQ1 treatment (500 nM) for 72 h, SUM159 and MDA-MB-231 cells were fixed by Fixative Solution for 15 min, followed by β-Galactosidase solution incubation overnight at 37° C. The staining was checked under microscope for the development of blue color. […] Briefly, SUM159 and SUM159R cells were treated with JQ1 or DMSO for 30 min in SUM medium. Verapamil was used as a positive control at 1:1000 dilution.

The subject of the next experiment is SUM149 cells. Nature of the experiment: Cell growth assay (viable cell numbers). The format is cell-based, human. The conditions noted are these: low (0.5 μM) and high (2.0 μM) doses, 6 days. The procedure: as §1
A further experiment has as its system SUM159 cells. Nature of the experiment: Cell growth assay (viable cell numbers). Format: cell-based, human. The conditions noted are these: low (0.5 μM) and high (2.0 μM) doses, 6 days. How it is done: as §1
The next experiment deals with SUM159R cells. The experiment is described as follows: Cell growth assay (viable cell numbers). Format: cell-based, human. The conditions noted are these: high concentrations (up to 20 μM) of JQ1. The procedure: as §1

`Cc1sc2c(c1C)C(c1ccc(Cl)cc1)=N[C@@H](CC(=O)OC(C)(C)C)c1nnc(C)n1-2` [JQ1]: the “Basal markers (HMW cytokeratins)” value with TNBC cells was “decrease of high molecular-weight (HMW) cytokeratins”. For the same compound, in the experiment on TNBC cells, the “Luminal markers (LMW cytokeratins, CK18)” value was “elevation of low molecular-weight (LMW) cytokeratins and cytokeratin 18 (CK18)”. The “BRD4 occupancy at Chem-seq-defined SE regions” value in experiment [1] (SUM159R, JQ1 exposure) is reported as “retain chromatin-bound BRD4”. In addition, in experiment [1] (SUM159R, following JQ1 treatment), the “Displacement of BRD4 from chromatin” value is listed as “not displaced from chromatin”. In addition, the “Effect on H3K27ac or global transcription” value in experiment [1] (resistant cells) is recorded as “fails to influence”. The Proliferation entry in the experiment with SUM149R cells was “continue to proliferate linearly over time”; with SUM149 cells, “severely impaired”; with SUM159 cells, “severely impaired”; in the experiment on SUM159R cells, “continue to proliferate linearly over time”.
